From ChEMBL document CHEMBL3045334, “Microwave-assisted synthesis and evaluation of naphthalimides derivatives as free radical scavengers” (Med Chem Res, 2011) come the findings set out here.

pIC50: −log10 of the molar value.

For one assay, the system named is Radical scavenging activity. Description: Antioxidant activity assessed as DPPH radical scavenging activity. Format: functional.
Settings: not given; call rule not given here
On the technique in general: DPPH is a stable violet radical that fades when it is reduced.
Turning to `O=C1OC(=O)c2ccc(Br)c3cccc1c23`, the IC50 entry was “Not Active”.

The assay is the same for the next values; noted with them: read-out: IC50.
As for `O=C1c2cccc3cccc(c23)C(=O)N1Nc1ccccc1`, the pIC50 – broadly, the IC50 on a negative log10 scale, so that one unit is a factor of ten – is 3.83.

For `CCCCNc1ccc2c3c(cccc13)C(=O)N(CCCC)C2=O`, the pIC50 was 3.49.

For `O=C1c2cccc3cccc(c23)C(=O)N1Cc1ccccc1`, the pIC50 was 3.85.

On to `O=C1c2cccc3cccc(c23)C(=O)N1c1ccccc1`, for which the pIC50 is 3.89.

Turning to `CC(C)c1ccc2c(c1)CCC1[C@@](C)(CN3C(=O)c4cccc5c(NCc6ccccc6)ccc(c45)C3=O)CCC[C@]21C` (some centres not stated), the pIC50 was 4.21.

`CC(C)c1ccc2c(c1)CCC1[C@@](C)(CN3C(=O)c4cccc5c(NCCO)ccc(c45)C3=O)CCC[C@]21C` (some centres not stated): the pIC50 was 3.66.

On to `CCCNc1ccc2c3c(cccc13)C(=O)N(C[C@@]1(C)CCC[C@]3(C)c4ccc(C(C)C)cc4CCC13)C2=O` (some centres not stated), for which the pIC50 is 3.68.

Regarding `CCCCNc1ccc2c3c(cccc13)C(=O)N(C[C@@]1(C)CCC[C@]3(C)c4ccc(C(C)C)cc4CCC13)C2=O` (some centres not stated), the pIC50 is 3.69.

`O=C1c2cccc3c(NCc4ccccc4)ccc(c23)C(=O)N1Cc1ccccc1`: the pIC50 was 4.07.

`CCCNc1ccc2c3c(cccc13)C(=O)N(CCC)C2=O`: the pIC50 was 3.45.

As for `O=C1OC(=O)c2cc([N+](=O)[O-])c(Br)c3cccc1c23`, the pIC50 is 4.27.

`O=C1c2cccc3c(NCCO)c([N+](=O)[O-])cc(c23)C(=O)N1CCO`: the pIC50 was 3.64.

As for `Cc1ccc(Nc2c([N+](=O)[O-])cc3c4c(cccc24)C(=O)N(c2ccc(C)cc2)C3=O)cc1`, the pIC50 was 4.37.

As for `O=C1c2cccc3c(NCc4ccccc4)c([N+](=O)[O-])cc(c23)C(=O)N1Cc1ccccc1`, the pIC50 is 4.37.

As for `CCCCNc1c([N+](=O)[O-])cc2c3c(cccc13)C(=O)N(CCCC)C2=O`, the pIC50 was 3.67.

As to `CCCNc1c([N+](=O)[O-])cc2c3c(cccc13)C(=O)N(CCC)C2=O`, the pIC50 was 3.64.

In the case of `NN1C(=O)c2cccc3cccc(c23)C1=O`, the pIC50 was 3.73.

On to `CCCCN1C(=O)c2cccc3cccc(c23)C1=O`, for which the pIC50 is 3.74.

With `CCCN1C(=O)c2cccc3cccc(c23)C1=O`, the pIC50 was 3.75.

Consider `CC(C)c1ccc2c(c1)CCC1[C@@](C)(CN3C(=O)c4cccc5cccc(c45)C3=O)CCC[C@]21C` (some centres not stated), for which the pIC50 was 3.78.

As to `O=C1c2cccc3c(Br)ccc(c23)C(=O)N1Cc1ccccc1`, the pIC50 is 3.62.

As to `CC(C)c1ccc2c(c1)CCC1[C@@](C)(CN3C(=O)c4cccc5c(Br)ccc(c45)C3=O)CCC[C@]21C` (some centres not stated), the pIC50 was 3.68.

As for `O=C1NC(=O)c2cccc3cccc1c23`, the pIC50 is 3.83.

With `O=C1c2cccc3cccc(c23)C(=O)N1CCO`, the pIC50 is 3.81.

Turning to `O=C1OC(=O)c2cccc3cccc1c23` [1,8-NAPHTHALIC ANHYDRIDE], the pIC50 was 2.75.

Regarding `Cc1cc(C(C)(C)C)c(O)c(C(C)(C)C)c1` [BUTYLATED HYDROXYTOLUENE], the pIC50 is 4.18.
